For assay [1], the species on record is Danio rerio. Nature of the assay: Inhibition of FGFR-mediated mkp3 mRNA expression in Zebrafish embryo tailbud region at 40 uM by in situ hybridization analysis.
Assay [2] is filed under the species Danio rerio. The assay can be described thus: Inhibition of FGFR-mediated mkp3 mRNA expression in Zebrafish embryo mid-hind brain boundary at 40 uM by in situ hybridization analysis.
Assay [3] is filed under the species Danio rerio. Nature of the assay: Inhibition of FGFR-mediated distal pectoral fin development in Zebrafish embryo at 700 nM by in situ hybridization method at 48-60 hrs post fertilization stage.
The species named for assay [4] is Danio rerio. The assay can be described thus: Inhibition of FGFR-mediated mkp3 mRNA expression in Zebrafish dorsal forebrain at 40 uM by in situ hybridization analysis. The assay is classed as tissue-based.
For assay [5], the species on record is Danio rerio. The assay can be described thus: Inhibition of FGFR-mediated fin development in Zebrafish embryo at 40 uM by in situ hybridization method at 48-60 hrs post fertilization stage.

The source made the active and inactive calls. The calls are words filed in the database; no cut-off is given here.

For `Cc1c[nH]c(/C=C2\C(=O)Nc3ccccc32)c1CCC(=O)O`, the inhibition result in assay [1], in assay [2] and in assay [4] was “Active” in each case. Also, the inhibition in assay [3] is 72%; in assay [5], 76%.

These data come from ChEMBL document CHEMBL1240307, “A functional genomics approach to the mode of action of apratoxin A” (Nat Chem Biol, 2006).
